Read-outs that look alike come from different tables or passages of the source.
Tests used:
human DAT = molecular target: T1, human DAT (Homo sapiens, UniProt Q01959); assay: Uptake inhibition assay, DAT; format: cell-based; details: HEK293 cells expressing human DAT, 0.05 µM [3H]MPP+; for IC50: given as a range
T1 construct: expressed in transfected cells

human NET = molecular target: T2, human NET (Homo sapiens, UniProt P23975); assay: cell-based; format: cell-based
T2 construct: expressed in transfected cells

human OCT1 [1] = molecular target: T3, human OCT1 (Homo sapiens, UniProt O15245); assay: cell-based
T3 sequence (O15245 1-554): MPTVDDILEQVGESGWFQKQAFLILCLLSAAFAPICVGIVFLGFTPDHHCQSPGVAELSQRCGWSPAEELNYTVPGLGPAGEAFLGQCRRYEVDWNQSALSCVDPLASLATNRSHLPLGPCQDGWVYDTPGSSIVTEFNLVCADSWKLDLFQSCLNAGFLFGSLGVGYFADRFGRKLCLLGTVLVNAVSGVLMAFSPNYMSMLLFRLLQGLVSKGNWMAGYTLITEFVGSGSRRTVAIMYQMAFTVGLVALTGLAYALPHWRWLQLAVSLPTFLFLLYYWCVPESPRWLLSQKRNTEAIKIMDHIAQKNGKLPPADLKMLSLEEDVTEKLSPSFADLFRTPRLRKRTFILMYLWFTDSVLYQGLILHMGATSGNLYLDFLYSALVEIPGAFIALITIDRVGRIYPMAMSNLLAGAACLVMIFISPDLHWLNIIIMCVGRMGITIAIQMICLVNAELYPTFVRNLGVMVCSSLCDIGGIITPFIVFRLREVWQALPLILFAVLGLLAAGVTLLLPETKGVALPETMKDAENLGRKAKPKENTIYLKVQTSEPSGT
Procedure: (§1) Cells were cultured in Dulbecco’s modified Eagle’s medium (DMEM) supplemented with 10% fetal bovine serum and 250 μg/mL geneticin to maintain selection pressure.
(§2) HEK293 cells heterologously expressing the respective transporters were seeded onto poly-D-lysine (PDL)-coated 96-well plates at a density of ∼36,000 cells per well, 1 day before experiments. For the experiment, medium was replaced with 200 µL Krebs HEPES buffer (KHB; 120 mM NaCl, 3 mM KCl, 2 mM CaCl2·2H2O, 2 mM MgCl2·6H2O, 20 mM D-glucose, pH 7.3). Test compounds were dissolved in Milli-Q water or dimethyl sulfoxide (DMSO) at 10–100 mM stock concentrations. Cells were preincubated for 5 min with the compound of interest (diluted in KHB to the indicated concentrations). The preincubation solution was then replaced with 50 µL/well of diluted compound together with tritiated substrate (DAT, OCT1, OCT2, OCT3: 0.05 μM [^3H]MPP^+; NET: 0.02 μM [^3H]MPP^+; SERT: 0.1 μM [^3H]5-HT) for 1 min (SERT) or 3 min (DAT, NET, OCT1– OCT3). After the incubation, uptake was terminated by rapidly washing cell with 200 μL KHB, followed by addition of 200 μL Ultima Gold™ XR scintillation cocktail (PerkinElmer, MA, United States) to each well. […] Uptake in the absence of inhibitor was defined as 100%, while uptake in presence of a reference inhibitor (hDAT, hNET: 50 μM GBR12909; hSERT: 3 μM paroxetine; OCT1–OCT3: 100 µM D22) was defined as nonspecific uptake (0%) and subtracted from all values.
(§3) Uptake is expressed as a percentage of control (uptake in the absence of test compound). Data represent mean ± SD of ≥3 independent experiments.

human OCT2 [2] = molecular target: T4, human OCT2 (Homo sapiens, UniProt O15244); assay: cell-based
T4 sequence (O15244 1-555): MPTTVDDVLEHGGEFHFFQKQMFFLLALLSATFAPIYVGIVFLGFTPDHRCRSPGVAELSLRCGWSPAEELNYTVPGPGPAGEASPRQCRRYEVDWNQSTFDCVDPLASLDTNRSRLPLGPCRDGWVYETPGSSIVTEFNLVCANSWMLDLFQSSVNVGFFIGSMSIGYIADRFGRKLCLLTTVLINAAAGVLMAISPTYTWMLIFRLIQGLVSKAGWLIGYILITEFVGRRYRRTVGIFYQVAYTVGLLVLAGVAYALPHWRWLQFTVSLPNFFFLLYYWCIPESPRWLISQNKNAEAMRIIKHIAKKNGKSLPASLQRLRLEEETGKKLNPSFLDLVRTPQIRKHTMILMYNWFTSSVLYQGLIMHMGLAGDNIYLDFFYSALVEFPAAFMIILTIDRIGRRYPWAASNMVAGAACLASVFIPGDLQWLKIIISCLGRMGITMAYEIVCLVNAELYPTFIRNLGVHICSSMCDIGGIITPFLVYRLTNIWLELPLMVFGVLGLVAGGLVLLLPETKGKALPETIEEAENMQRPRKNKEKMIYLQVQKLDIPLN
Procedure: as §1, §2, §3

human OCT3 [3] = molecular target: T5, human OCT3 (Homo sapiens, UniProt O75751); assay: Uptake inhibition assay, OCT3; format: cell-based; details: HEK293 cells expressing human OCT3, 0.05 µM [3H]MPP+
T5 construct: expressed in transfected cells
T5 sequence (O75751 1-556): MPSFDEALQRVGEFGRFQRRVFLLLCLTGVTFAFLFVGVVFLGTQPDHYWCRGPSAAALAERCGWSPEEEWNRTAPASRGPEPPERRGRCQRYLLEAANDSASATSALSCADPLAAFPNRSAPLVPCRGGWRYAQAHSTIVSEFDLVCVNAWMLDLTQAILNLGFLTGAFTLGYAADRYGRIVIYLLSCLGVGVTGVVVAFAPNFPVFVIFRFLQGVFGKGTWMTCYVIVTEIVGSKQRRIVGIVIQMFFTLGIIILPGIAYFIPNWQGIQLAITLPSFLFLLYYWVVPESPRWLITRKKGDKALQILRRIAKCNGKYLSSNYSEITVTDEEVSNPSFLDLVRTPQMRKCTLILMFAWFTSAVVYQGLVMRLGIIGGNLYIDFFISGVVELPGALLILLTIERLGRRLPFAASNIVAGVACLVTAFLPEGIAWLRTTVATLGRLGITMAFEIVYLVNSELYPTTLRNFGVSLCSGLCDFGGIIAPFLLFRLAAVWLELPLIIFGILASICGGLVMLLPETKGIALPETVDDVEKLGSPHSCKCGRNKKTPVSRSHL
Procedure: as §1, §2, §3

human OCT1 [4] = molecular target: T3, human OCT1; parameters: expressed in transfected cells; method as in Angenoorth et al., 2021; details: ref Angenoorth et al., 2021; cited from earlier work
human OCT3 [5] = molecular target: T5, human OCT3; parameters: method as in Angenoorth et al., 2021; details: ref Angenoorth et al., 2021; cited from earlier work
human OCT2 [6] = molecular target: T4, human OCT2; parameters: expressed in transfected cells; method as in Angenoorth et al., 2021; details: ref Angenoorth et al., 2021; cited from earlier work
[7] = HEK293 cells expressing human NET, 0.02 µM [3H]MPP+
[8] = HEK293 cells expressing human NET, 0.02 µM [3H]MPP+, given as a range, read-out: IC50 of NET uptake inhibition

T1 sequence (Q01959 whole entry): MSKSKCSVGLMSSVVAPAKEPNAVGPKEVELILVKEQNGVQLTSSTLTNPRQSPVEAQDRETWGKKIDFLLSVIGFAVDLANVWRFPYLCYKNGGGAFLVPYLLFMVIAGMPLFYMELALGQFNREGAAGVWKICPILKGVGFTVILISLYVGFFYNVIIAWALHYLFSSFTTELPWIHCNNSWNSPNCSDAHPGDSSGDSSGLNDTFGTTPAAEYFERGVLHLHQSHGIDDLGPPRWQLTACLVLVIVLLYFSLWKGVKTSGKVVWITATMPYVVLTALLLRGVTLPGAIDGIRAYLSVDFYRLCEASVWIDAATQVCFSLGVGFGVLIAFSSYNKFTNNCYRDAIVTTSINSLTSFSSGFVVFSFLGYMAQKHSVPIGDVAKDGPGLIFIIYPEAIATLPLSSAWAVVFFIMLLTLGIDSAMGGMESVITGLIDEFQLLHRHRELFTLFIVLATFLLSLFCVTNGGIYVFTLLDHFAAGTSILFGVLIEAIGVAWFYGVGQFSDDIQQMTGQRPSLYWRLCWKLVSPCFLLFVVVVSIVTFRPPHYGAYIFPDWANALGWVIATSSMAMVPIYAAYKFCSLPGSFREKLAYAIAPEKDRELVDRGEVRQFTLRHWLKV
T2 sequence (P23975 whole entry): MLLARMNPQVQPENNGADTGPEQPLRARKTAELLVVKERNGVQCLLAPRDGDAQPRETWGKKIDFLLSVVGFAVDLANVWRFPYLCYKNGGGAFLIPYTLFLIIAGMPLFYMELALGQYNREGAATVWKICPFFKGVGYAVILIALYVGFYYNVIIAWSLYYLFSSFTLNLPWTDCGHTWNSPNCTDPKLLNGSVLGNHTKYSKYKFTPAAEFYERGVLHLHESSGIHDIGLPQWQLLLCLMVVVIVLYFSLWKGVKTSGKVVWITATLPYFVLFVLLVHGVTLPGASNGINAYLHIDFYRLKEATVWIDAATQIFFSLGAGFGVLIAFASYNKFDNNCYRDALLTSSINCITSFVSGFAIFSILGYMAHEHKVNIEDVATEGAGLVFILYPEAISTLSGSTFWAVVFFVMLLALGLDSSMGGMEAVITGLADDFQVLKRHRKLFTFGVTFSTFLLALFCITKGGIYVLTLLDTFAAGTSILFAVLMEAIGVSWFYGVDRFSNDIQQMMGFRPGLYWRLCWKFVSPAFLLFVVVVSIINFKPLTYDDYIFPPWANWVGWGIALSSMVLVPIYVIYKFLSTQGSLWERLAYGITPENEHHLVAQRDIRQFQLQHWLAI

SMILES | Inhibitory activity at DAT (in words) (human DAT) | Inhibitory activity at NET (in words) (human NET; [7]) | IC50 (human DAT) [µM] | Inhibition of OCT3-mediated transport (in words) (human OCT3 [3]) | further results
CC(=O)Nc1ccc(O)cc1 [paracetamol] | no measurable inhibitory activity | no measurable inhibitory activity |  |  | 
CCN(CC)CCOC(=O)c1ccc(N)cc1 [procaine] |  |  | 15 to 29 | none of the compounds—cocaine, procaine, or lidocaine—substantially inhibited OCT3-mediated transport except at near-millimolar concentrations | IC50 (human OCT1 [1]): 5 to 9 µM; IC50 (human OCT2 [2]): 10 to 24 µM; IC50 (human NET; [8]): 88 to 146 µM
COC(=O)[C@H]1[C@@H](OC(=O)c2ccccc2)C[C@@H]2CC[C@H]1N2C [cocaine] |  |  |  | none of the compounds—cocaine, procaine, or lidocaine—substantially inhibited OCT3-mediated transport except at near-millimolar concentrations | Inhibition of OCT1 (in words), previously reported (human OCT1 [4]): inhibits OCT1 and OCT2; Inhibition of OCT3 (in words), previously reported (human OCT3 [5]): but not OCT3; IC50 (human OCT1 [1]): 19 to 57 µM; IC50 (human OCT2 [2]): 15 to 42 µM; Inhibition of OCT2 (in words), previously reported (human OCT2 [6]): inhibits OCT1 and OCT2
c1ccc([C@H]2CN3CCSC3=N2)cc1 [levamisole] |  |  | 81 to 316 |  | IC50 (human NET): 60 to 106 µM
CCOc1ccc(NC(C)=O)cc1 [phenacetin] | no measurable inhibitory activity | no measurable inhibitory activity |  |  | 
CCOC(=O)c1ccc(N)cc1 [benzocaine, Ethyl 4-Aminobenzoate] |  |  | 17 to 27 | failed to inhibit | Inhibition of [3H]MPP+ transport via OCT1 (in words) (human OCT1 [1]; HEK293 cells expressing human OCT1, 0.05 µM [3H]MPP+): failed to inhibit; Inhibition of [3H]MPP+ transport via OCT2 (in words) (human OCT2 [2]; HEK293 cells expressing human OCT2, 0.05 µM [3H]MPP+): failed to inhibit; IC50 (human NET; [8]): 215 to 444 µM
CCN(CC)CC(=O)Nc1c(C)cccc1C [lidocaine] | no inhibitory potency | no inhibitory potency |  |  | 
